Results taken from patent US10561736B1, “Apoptosis inhibitor formulations for prevention of hearing loss” (Spiral Therapeutics, Inc., priority 2019, dated 2020).
“Also recorded” adds a separate entry of the source.

Key:
caspase 3 = experiment: CisPt-induced caspase 3 activation in HEI-OC1 cells; type: cell-based
Experimental: (§1) To identify off-target activities of LPT99, its selectivity against a panel of receptors (44 G-protein-coupled receptors [GPCR] and 4 non-GPCR), 4 ion channels, and 3 transporters were analyzed. The cell line, HEI-OC1 (house ear institute organ of Corti 1), which expresses several characteristic markers of the organ of Corti sensory cells (Kalinec, et al., Audiol. Neurootol. 2003, 8(4), 177-89), was used to evaluate the efficacy of LPT99 in preventing apoptosis due to […]. Cells were pre-incubated with LPT99, followed by […] for 24 hours.

HEI-OC1 cells [1] = experiment: HEI-OC1 cell viability with CisPt; type: cell-based; details: cellular model of CisPt-induced apoptosis
Experimental: as §1
(§2) The effect of LPT99 on proliferation of non-apoptotic cells was studied. A549 cells were cultured in the presence of LPT99 for up to 6 days; the cell number was monitored by flow cytometry, and doubling time was calculated.

[2] = metabolic stability in microsomal and S9 hepatic fractions; type: in vitro ADME; details: after 1 hour
From the text: The metabolic profile and stability of LPT99 was characterized in human, dog, rabbit, rat, and mouse microsomal and S9 fractions, and in human cytosolic fractions.

[3] = system: auditory function (ototoxicity); experiment: non-GLP auditory toxicity after intra-tympanic administration; type: in vivo, rat; details: for ototoxicity: rat
[4] = physical stability of drug product vials; type: physicochemical; details: for original drug concentration remaining in solution: filtered through 0.2 micron filters
Experimental: Vials of the drug product were stored at either room temperature or 4° C. for a period greater than three months.

HEI-OC1 cells [5] = details: cellular model of CisPt-induced apoptosis; IEB Symposium abstracts 2016; cited from earlier work
Sprague-Dawley rats = experiment: functional observation battery, IP injection; type: in vivo; details: rat
Experimental: A functional observation battery was conducted with LPT99 administered via IP (intraperitoneal) injection in Sprague-Dawley rats. The study was preceded by a non-GLP maximum tolerated dose (MTD) toxicity study, via the same administration and test system, which determined the MTD of LTP99 to be 1000 mg/kg. LPT99 was suspended in vehicle [0.5% w/v methylcellulose and 0.1% v/v TWEEN®80 in Milli-Q water] and administered intraperitoneally to Sprague-Dawley rats as a single dose at the doses of 100 (low—G2/G2TK), 300 (mid—G3/G3TK), and 750 (high—G4/G4TK) mg/kg body weight. The rats in vehicle control groups (G1/G1TK) received the vehicle alone. The dose volume administered was at an equivolume of 10 mL/kg body weight for all groups.
LPT99 was suspended in vehicle [0.5% w/v methylcellulose and 0.1% v/v TWEEN® 80 in Milli-Q water] and administered intraperitoneally to Sprague-Dawley rats as a single dose at the doses of 100 (low—G2/G2TK), 300 (mid—G3/G3TK), and 750 (high—G4/G4TK) mg/kg body weight. The rats in vehicle control groups (G1/G1TK) received the vehicle alone. The dose volume administered was at an equivolume of 10 mL/kg body weight for all groups.

rats = experiment: GLP auditory safety study after single IT administration; type: in vivo, rat
Experimental: Gross observations were recorded, and selected organs were weighed.

[6] = plasma concentrations after IT administration of LPT99-CD; type: in vivo, rat
Experimental: In a study conducted in female Wistar rats, plasma concentrations of LPT99 were evaluated at 1 hour and 2, 4, 7, and 14 days after IT administration of a single 50 μL dose of 50, 100, or 200 μM LPT99 formulated in a 5% HPβ-cyclodextrin (“CD”) vehicle (LPT99-CD).

[7] = worst-case human plasma concentration estimate; details: assumed maximum clinical dose 200 μg, human plasma volume 2400 mL
Experimental: These bioavailability values are similar to those described for other drugs formulated in POLOXAMER® gels and administered IT (Honeder, et al., Audiol. Neurootol. 2014, 19(3), 193-202; Wang, et al., Audiol. Neurootol. 2011, 16(4), 233-41; Yang, et al., Sci. Transl. Med. 2016, 8(356), 356ra120). Assuming a maximum clinical dose of 200 μg LPT99 and an average human plasma volume of 2400 mL (for an average 60-kg individual [typical blood plasma volume in males is ˜39 mL/kg of body weight, and in females ˜40 mL/kg]).

[8] = calculation of the maximum recommended starting dose (MRSD); parameters: species or system human
Experimental: For the calculation of the maximum recommended starting dose (MRSD) the following parameters have been considered:
The total perilymph volume in rat will be then: (Cochlearperilymph+Semicircular canalsperilymph)=STperilymph+SVperilymph+Semicircular canalsperilymph=1.04+1.59+0.9=3.53 μl
The total perilymph volume in human has been described to be 158 μl (Buckingham and Valvassori, Ann. Otol. Rhinol. Laryngol. 2001, 110(2), 113-7).
The amount of LPT99 to be injected in humans is normalized with the volumes of perilymph in rats and humans and the amount injected at the NOAEL dose as follows: LPT99 injected,rats/Volume perilymphrats=LPT99 injected,humans/Volume perilymphhumans 15 μg/3.53 μl=Y μg/158 μl; Y=671.38 μg.
MRSD should not exceed that which is calculated to deliver 1/10th of the estimated perilymph concentration of LPT99 in rat at the NOAEL, when normalized to the perilymph volume in humans. 67.14 μg ( 1/10 of 671.38 μg) is calculated as the maximum mass of LPT99 to be delivered in a volume of 200 μl. The MRSD would be then 67.14 μg/200 μl=535 μM.

A549 cells = experiment: proliferation of non-apoptotic A549 cells; type: cell-based; details: A549 cells cultured with LPT99 up to 6 days; reversible on removal
Experimental: as §2

hERG = target: T1, hERG (Homo sapiens, UniProt Q12809); experiment: hERG automated patch clamp assay in hERG-CHO cells; type: cell-based
T1 construct: expressed in transfected cells; host or cells: CHO
From the text: The potential cardiotoxicity of LPT99 was investigated in an assay using the hERG-CHO cells transfected with the automated patch clamp assay.

T1 sequence (Q12809 whole entry): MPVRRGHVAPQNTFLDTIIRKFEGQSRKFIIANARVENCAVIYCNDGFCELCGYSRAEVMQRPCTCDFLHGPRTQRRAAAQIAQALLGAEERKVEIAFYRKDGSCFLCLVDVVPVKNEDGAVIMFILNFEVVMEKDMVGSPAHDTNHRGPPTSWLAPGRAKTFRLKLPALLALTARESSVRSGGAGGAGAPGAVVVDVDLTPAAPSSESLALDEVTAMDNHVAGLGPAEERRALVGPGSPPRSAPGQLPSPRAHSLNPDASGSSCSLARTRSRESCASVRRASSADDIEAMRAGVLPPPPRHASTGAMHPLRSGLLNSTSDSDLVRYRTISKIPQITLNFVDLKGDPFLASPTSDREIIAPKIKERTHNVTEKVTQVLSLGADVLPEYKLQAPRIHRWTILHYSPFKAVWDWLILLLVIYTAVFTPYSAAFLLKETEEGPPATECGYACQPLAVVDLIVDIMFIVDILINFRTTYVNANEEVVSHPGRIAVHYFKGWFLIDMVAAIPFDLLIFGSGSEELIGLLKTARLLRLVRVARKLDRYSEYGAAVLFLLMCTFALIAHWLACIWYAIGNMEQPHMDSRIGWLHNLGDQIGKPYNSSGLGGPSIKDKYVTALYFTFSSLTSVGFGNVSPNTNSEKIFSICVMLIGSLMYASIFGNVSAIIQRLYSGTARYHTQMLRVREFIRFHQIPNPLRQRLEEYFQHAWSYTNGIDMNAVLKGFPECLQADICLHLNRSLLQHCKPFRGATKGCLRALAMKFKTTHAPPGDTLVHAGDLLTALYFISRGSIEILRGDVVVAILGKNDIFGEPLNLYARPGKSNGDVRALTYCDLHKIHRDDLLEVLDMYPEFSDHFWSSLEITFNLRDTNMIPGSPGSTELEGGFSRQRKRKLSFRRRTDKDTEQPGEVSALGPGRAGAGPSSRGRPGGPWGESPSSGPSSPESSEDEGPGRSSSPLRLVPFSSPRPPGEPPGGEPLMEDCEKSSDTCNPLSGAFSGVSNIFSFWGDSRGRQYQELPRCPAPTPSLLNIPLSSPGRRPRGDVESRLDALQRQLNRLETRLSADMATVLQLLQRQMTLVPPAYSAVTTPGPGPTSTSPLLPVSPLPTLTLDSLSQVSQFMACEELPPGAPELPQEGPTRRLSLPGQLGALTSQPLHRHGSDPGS

## COc1ccc2[nH]cc(CCNC(=O)CC3C(=O)N(CCc4ccc(Cl)cc4Cl)CC(=O)N3CCc3cccs3)c2c1 (stereo not shown) [LPT99, 2-(4-(2,4-dichlorophenethyl)-3,6-dioxo-1-(2-(thiophen-2-yl)ethyl)piperazin-2-yl)-N-(2-(5-methoxy-1H-indol-3-yl)ethyl)acetamide]
Caspase 3; cellular model of CisPt-induced apoptosis
  caspase 3 activation in the cellular model: reduced caspase-3 activation
Caspase 3; read-out: 50% inhibitory concentration (IC50) for caspase 3, HEI-OC1 cells pre-incubated with LPT99, then CisPt for 24 hours
  IC50: 5.2 ± 1.6 µM
HEI-OC1 cells [1]
  cell viability with CisPt: improved cell viability; also recorded: increased cellular viability
[2]; dog microsomal and S9 hepatic fractions
  metabolized: > 90%
[2]; human microsomal and S9 hepatic fractions
  metabolized: > 90%
[2]; mouse microsomal and S9 hepatic fractions
  metabolized: > 90%
[2]; rabbit microsomal and S9 hepatic fractions
  metabolized: > 90%
[2]; rat microsomal and S9 hepatic fractions
  metabolized: > 90%
[3]; IT, in cyclodextrin, 100 or 200 μM, Day 3
  ABR thresholds in response to click or pure tones (8 to 40 kHz), latencies and amplitudes: did not produce a statistically significant increase in the thresholds
[3]; IT, 100 and 478 μM, follow-up experiment
  ototoxicity: no LPT99 ototoxicity
[3]; IT, 200, 400, and 797 μM
  ototoxicity: no ototoxicity
[4]; vials stored at 4 C
  time to precipitation: approximately 2 months
  original drug concentration remaining in solution: less than 10%
[4]; vials stored at room temperature
  original drug concentration remaining in solution: 100%
[4]; vials stored at room temperature, greater than three months
  appearance of solution: remained clear with no evidence of drug precipitation
HEI-OC1 cells [5]
  cell viability: improved cell viability
Sprague-Dawley rats; IP 100 mg/kg, Day 1
  neurological parameters: unaffected
Sprague-Dawley rats; IP 300 and 750 mg/kg, both sexes, day 1, reversible by Day 15
  motor activity scores: lower motor activity scores
rats; rat, 200, 400, or 797 μM, 30 μL per ear
  tolerability of single IT dose: generally well tolerated
rats; rat, IT, 30 μl of 797 μM
  mass of injected LPT99 at the no observed adverse effect level (NOAEL): 15 µg
rats; rat, in vivo
  auditory brainstem response (hearing loss): no reliable evidence of test-article-related hearing loss
  cytocochleogram (hair cell loss): no reliable evidence of test-article-related hair cell loss
  otoscopic examination of the tympanic membranes (erythema, edema, wounds): no statistically significant changes in erythema, edema, or wounds
rats; rat, single bilateral IT 30 μL per ear, 14-day study
  mortalities, clinical abnormalities, body weight, food intake, clinical pathologies: no LPT99- or gentamicin-related mortalities
[6]; 50 μM dose
  plasma concentration at quantitation limit (3.2 nM) as share of administered dose: 0.006%
[6]; 100 μM dose
  plasma concentration at quantitation limit (3.2 nM) as share of administered dose: 0.003%
[6]; 200 μM dose
  plasma concentration at quantitation limit (3.2 nM) as share of administered dose: 0.0016%
[7]
  plasma LPT99 concentration if IT dose were 100% bioavailable: 0.066 µM
[8]; human
  MRSD: 535 µM
[8]; in a volume of 200 μl
  maximum mass of LPT99 to be delivered (1/10 of NOAEL equivalent): 67.14 µg
[8]; rat 3.53 μl vs human 158 μl perilymph
  amount of LPT99 to be injected in humans normalized by perilymph volume at the NOAEL: 671.38 µg
A549 cells
  cellular proliferation of non-apoptotic cells: delayed cellular proliferation
hERG
  safety margin (hERG IC50 vs plasma detection limit 3.2 nM): > 1063
hERG; hERG-CHO cells, automated patch clamp
  IC50: 3.4 µM
